Results as given in patent publication US12115178B2, “Acylated active agents and methods of their use for the treatment of autoimmune disorders” (Flagship Pioneering Innovations V, Inc., priority 2018, dated 2024).

assay: Assay 1. Stability in Simulated Gastric Fluid (SGF); format: in vitro ADME; details: SGF pH 1.6 with pepsin, 1 μM, 37° C.
Experimental: Assay 1. Stability of acylated active agents in Simulated Gastric Fluid (SGF). This assay was used to assess the stability of an acylated active agent in a stomach.
Medium was prepared by dissolving 2 g of sodium chloride in 0.6 L in ultrapure water (MilliQ®, Millipore Sigma, Darmstadt, Germany). The pH was adjusted to 1.6 with 1N hydrochloric acid, and the volume was then adjusted to 1 L with purified water.
60 mg FaSSIF powder (Biorelevant™, London, UK) were dissolved in 500 mL buffer (above). Pepsin was added (0.1 mg/mL) (Millipore Sigma, Darmstadt, Germany), and the solution was stirred. The resulting SGF media were used fresh for each experiment.
Test compounds were dissolved in DMSO stock to 1 mM. An aliquot of the DMSO stock solution was removed and diluted in the SGF Media in 15 mL falcon tubes to generate a total compound concentration of 1 μM. A 1 mL aliquot was immediately removed and diluted once with 1 volume of acetonitrile for T0 timepoint. The mixture was sealed and mixed at 37° C. in an incubator. Aliquots (1 mL) were removed at regular intervals and immediately quenched by the addition of 1 volume of acetonitrile. The resulting samples were analyzed by LC/MS to determine degradation rates in SGF.

Which “Assay 1 (SGF) (% Remaining @ 1 hour)” value does the source give for `CCCC(=O)OC[C@H]1O[C@@H](Oc2ccccc2C(=O)O)[C@H](OC(=O)CCC)[C@@H](OC(=O)CCC)[C@@H]1OC(=O)CCC` [Compound 28, 2-(((2S,3R,4S,5R,6R)-3,4,5-tris(butyryloxy)-6-((butyryloxy)methyl)tetrahydro-2H-pyran-2-yl)oxy)benzoic acid] here?
The value was “C (>75% of the tested compound remaining)”.

Which “Assay 1 (SGF) (% Remaining @ 1 hour)” value does the source give for `CC(=O)Oc1cc(OC(C)=O)c2c(=O)c(OC(C)=O)c(-c3cc(OC(C)=O)c(OC(C)=O)c(OC(C)=O)c3)oc2c1` [Compound 11, [3,5-diacetoxy-4-oxo-2-(3,4,5-triacetoxyphenyl)chromen-7-yl] acetate] here?
The value was “C (>75% of the tested compound remaining)”.

Which “Assay 1 (SGF) (% Remaining @ 1 hour)” value does the source give for `CCC(=O)OC[C@H]1O[C@@H](OC(=O)/C=C/c2c[nH]c3ccccc23)[C@H](OC(=O)CC)[C@@H](OC(=O)CC)[C@@H]1OC(=O)CC` [Compound 95, (2S,3R,4S,5R,6R)-3,4,5-tris(propanoyloxy)-6-[(propanoyloxy)methyl]oxan-2-yl (2E)-3-(1H-indol-3-yl)prop-2-enoate] here?
Its value is “B (25-75% of the tested compound remaining)”.

With `CCC(=O)Oc1cc(OC(=O)CC)c2c(=O)c(OC(=O)CC)c(-c3ccc(OC(=O)CC)c(OC(=O)CC)c3)oc2c1` [Compound 174, [4-[4-oxo-3,5,7-tri(propanoyloxy)chromen-2-yl]-2-propanoyloxy-phenyl] propanoate] as the molecule, how does the “Assay 1 (SGF) (% Remaining @ 1 hour)” value read?
Its value is “C (>75% of the tested compound remaining)”.

Which “Assay 1 (SGF) (% Remaining @ 1 hour)” value does the source give for `CCC(=O)O[C@@H]1[C@@H](OC(=O)CC)[C@@H](OC(=O)CCc2c[nH]c3ccccc23)OC[C@H]1OC(=O)CC` [Compound 75, (2R,3R,4S,5R)-3,4,5-tris(propanoyloxy)oxan-2-yl 3-(1H-indol-3-yl)propanoate] here?
The value was “C (>75% of the tested compound remaining)”.

Which “Assay 1 (SGF) (% Remaining @ 1 hour)” value does the source give for `CC(=O)Oc1ccc(-c2oc3cc(OC(C)=O)cc(OC(C)=O)c3c(=O)c2OC(C)=O)cc1` [Compound 177, [4-(3,5,7-triacetoxy-4-oxo-chromen-2-yl)phenyl] acetate] here?
The value was “C (>75% of the tested compound remaining)”.

For `CCC(=O)O[C@H]1[C@H](OC(=O)CC)[C@H](OC(=O)/C=C/c2c[nH]c3ccccc23)O[C@@H](C)[C@H]1OC(=O)CC` [Compound 116, (2S,3S,4R,5R,6S)-6-methyl-3,4,5-tris(propanoyloxy)oxan-2-yl (2E)-3-(1H-indol-3-yl)prop-2-enoate], which “Assay 1 (SGF) (% Remaining @ 1 hour)” value is on record?
Its value is “C (>75% of the tested compound remaining)”.

Which “Assay 1 (SGF) (% Remaining @ 1 hour)” value does the source give for `CCC(=O)O[C@@H]1[C@@H](OC(=O)CC)[C@H](OC(=O)CCc2c[nH]c3ccccc23)OC[C@H]1OC(=O)CC` [Compound 132, (2S,3R,4S,5R)-3,4,5-tris(propanoyloxy)oxan-2-yl 3-(1H-indol-3-yl)propanoate] here?
The value was “C (>75% of the tested compound remaining)”.

assay: Assay 2. Stability in Simulated Intestinal Fluid (SIF); format: in vitro ADME; details: SIF pH 6.7 with pancreatin, 1 μM, 37° C.
Experimental: Assay 2. Stability of acylated active agents in Simulated Intestinal Fluid (SIF). This assay was used to assess the stability of an acylated active agent in a small intestine. Phosphate buffer was prepared by dissolving 0.42 g of sodium hydroxide pellets and 3.95 g of monobasic sodium phosphate monohydrate and 6.19 g of sodium chloride in ultrapure water (MilliQ®, Millipore Sigma, Darmstadt, Germany). The pH was adjusted to 6.7 using aq. HCl and aq. NaOH, as necessary, and the solution was diluted with ultrapure water to produce 1 L of the pH 6.7 buffer. 112 mg FaSSIF powder (Biorelevant™, London, UK) was dissolved in 50 mL of the pH 6.7 buffer. 2 to 3 mL of the resulting solution were then added to 500 mg pancreatin (Millipore Sigma, Darmstadt, Germany). The resulting mixture was agitated by finger tapping the vessel containing the mixture until milky suspension formed. At this time, the remainder of the 50 mL FaSSiF/pH 6.7 buffer solution was added. The resulting suspension was flipped upside down 10 times to produce SIF, which was used fresh. Test compounds were dissolved in DMSO stock to 1 mM. An aliquot of the DMSO stock solution was removed and diluted in the SIF media in 15 mL falcon tubes to produce a mixture with a tested compound concentration of 1 μM. A 1 mL aliquot was immediately removed and diluted once with 1 volume of acetonitrile for T0 timepoint. The mixture was sealed and agitated at 37° C. in an incubator. Aliquots (1 mL) were removed at regular intervals and immediately quenched by the addition of 1 volume of acetonitrile. The resulting samples were analyzed by LC/MS to determine degradation rates.

With `C[C@@H]1O[C@@H](OC(=O)Cc2c[nH]c3ccccc23)[C@H](OC(=O)Cc2c[nH]c3ccccc23)[C@H](OC(=O)Cc2c[nH]c3ccccc23)[C@H]1OC(=O)Cc1c[nH]c2ccccc12` [Compound 122, (2S,3R,4R,5S,6S)-3,4,5-tris({[2-(1H-indol-3-yl)acetyl]oxy})-6-methyloxan-2-yl 2-(1H-indol-3-yl)acetate] as the molecule, how does the “Assay 2 (SIF) (% @ Remaining 4 hours)” value read?
The value was “A (<25% of the tested compound remaining)”.

Which “Assay 2 (SIF) (% @ Remaining 4 hours)” value does the source give for `CCCC(=O)O[C@H]1O[C@@H](C)[C@H](OC(=O)CCC)[C@@H](OC(=O)CCC)[C@H]1OC(=O)CCC` [Compound 119, (2R,3R,4R,5S,6S)-3,4,5-tris(butanoyloxy)-6-methyloxan-2-yl butanoate] here?
The value was “A (<25% of the tested compound remaining)”.

With `CCCC(=O)O[C@H]1OC[C@@H](OC(=O)CCC)[C@H](OC(=O)CCC)[C@H]1OC(=O)CCC` [Compound 159, (2R,3R,4S,5R)-3,4,5-tris(butanoyloxy)oxan-2-yl butanoate] as the molecule, how does the “Assay 2 (SIF) (% @ Remaining 4 hours)” value read?
Its value is “C (>75% of the tested compound remaining)”.

With `CC(=O)Oc1ccc([C@@H]2CC(=O)c3c(OC(C)=O)cc(OC(C)=O)cc3O2)cc1` [Compound 176, (S)-2-(4-acetoxyphenyl)-4-oxochromane-5,7-diyl diacetate] as the molecule, how does the “Assay 2 (SIF) (% @ Remaining 4 hours)” value read?
Its value is “A (<25% of the tested compound remaining)”.

For `CC(=O)Oc1ccc(-c2oc3cc(OC(C)=O)cc(OC(C)=O)c3c(=O)c2OC(C)=O)cc1` [Compound 8, [4-(3,5,7-triacetoxy-4-oxo-chromen-2-yl)phenyl] acetate], which “Assay 2 (SIF) (% @ Remaining 4 hours)” value is on record?
The value was “A (<25% of the tested compound remaining)”.

With `CCCC(=O)O[C@@H]1O[C@@H](C)[C@H](OC(=O)CCC)[C@@H](OC(=O)CCC)[C@H]1OC(=O)CCC` [Compound 120, (2S,3R,4R,5S,6S)-3,4,5-tris(butanoyloxy)-6-methyloxan-2-yl butanoate] as the molecule, how does the “Assay 2 (SIF) (% @ Remaining 4 hours)” value read?
Its value is “A (<25% of the tested compound remaining)”.

Which “Assay 2 (SIF) (% @ Remaining 4 hours)” value does the source give for `CCCC(=O)OCC1(OC(=O)CCC)OC[C@@H](OC(=O)CCC)[C@H](OC(=O)CCC)[C@@H]1OC(=O)CCC` (stereo partly drawn) [Compound 131, [(3S,4S,5R)-2,3,4,5-tetrakis(butanoyloxy)oxan-2-yl]methyl butanoate] here?
The value was “A (<25% of the tested compound remaining)”.

With `CCCC(=O)O[C@@H]1[C@@H](OC(=O)CCC)[C@@H](Oc2ccc(N)cc2C(=O)O)OC[C@H]1OC(=O)CCC` [Compound 184, 5-amino-2-[(2R,3R,4S,5R)-3,4,5-tri(butanoyloxy)tetrahydropyran-2-yl]oxy-benzoic acid] as the molecule, how does the “Assay 2 (SIF) (% @ Remaining 4 hours)” value read?
The value was “B (25-75% of the tested compound remaining)”.

Which “Assay 2 (SIF) (% @ Remaining 4 hours)” value does the source give for `CCCC(=O)O[C@H]1[C@@H](Oc2ccccc2C(=O)O)OC[C@@H](OC(=O)CCC)[C@H]1OC(=O)CCC` [Compound 42, 2-(((3R,4R,5R)-3,4,5-tris(butyryloxy)tetrahydro-2H-pyran-2-yl)oxy)benzoic acid] here?
Its value is “C (>75% of the tested compound remaining)”.

Which “Assay 2 (SIF) (% @ Remaining 4 hours)” value does the source give for `CCCC(=O)Oc1ccc([C@@H]2CC(=O)c3c(OC(=O)CCC)cc(OC(=O)CCC)cc3O2)cc1` [Compound 175, (S)-2-(4-(butyryloxy)phenyl)-4-oxochromane-5,7-diyl dibutyrate] here?
The value was “A (<25% of the tested compound remaining)”.

Which “Assay 2 (SIF) (% @ Remaining 4 hours)” value does the source give for `CCCC(=O)Oc1ccc(/N=N/c2ccc(OC(=O)CCC)c(C(=O)O)c2)cc1C(=O)O` [Compound 17, 2-butanoyloxy-5-[(E)-(4-butanoyloxy-3-carboxy-phenyl)azo]benzoic acid] here?
The value was “A (<25% of the tested compound remaining)”.

For `CCCC(=O)Nc1ccc(O[C@@H]2OC[C@@H](OC(=O)CCC)[C@H](OC(=O)CCC)[C@H]2OC(=O)CCC)c(C(=O)O)c1` [Compound 188, 5-butanamido-2-{[(2S,3R,4S,5R)-3,4,5-tris(butanoyloxy)oxan-2-yl]oxy}benzoic acid], which “Assay 2 (SIF) (% @ Remaining 4 hours)” value is on record?
Its value is “A (<25% of the tested compound remaining)”.

With `C[C@@H]1O[C@H](OC(=O)Cc2c[nH]c3ccccc23)[C@H](OC(=O)Cc2c[nH]c3ccccc23)[C@H](OC(=O)Cc2c[nH]c3ccccc23)[C@H]1OC(=O)Cc1c[nH]c2ccccc12` [Compound 121, (2R,3R,4R,5S,6S)-3,4,5-tris({[2-(1H-indol-3-yl)acetyl]oxy})-6-methyloxan-2-yl 2-(1H-indol-3-yl)acetate] as the molecule, how does the “Assay 2 (SIF) (% @ Remaining 4 hours)” value read?
The value was “A (<25% of the tested compound remaining)”.

For `CC(=O)Oc1ccc2c(c1)oc(=O)c1cc(OC(C)=O)c(OC(C)=O)cc12` [Compound 203, 6-oxo-6H-benzo[c]chromene-3,8,9-triyl triacetate], which “Assay 2 (SIF) (% @ Remaining 4 hours)” value is on record?
The value was “B (25-75% of the tested compound remaining)”.

Which “Assay 2 (SIF) (% @ Remaining 4 hours)” value does the source give for `CC(=O)Oc1cc(OC(C)=O)c2c(=O)c(OC(C)=O)c(-c3ccc(OC(C)=O)c(OC(C)=O)c3)oc2c1` [Compound 182, [2-acetoxy-4-(3,5,7-triacetoxy-4-oxo-chromen-2-yl)phenyl] acetate] here?
Its value is “A (<25% of the tested compound remaining)”.

For `CCCC(=O)O[C@@H]1[C@@H](OC(=O)CCC)[C@H](C)O[C@@H](O)[C@@H]1OC(=O)CCC` [Compound 141, (2S,3S,4R,5R)-4,5-bis(butanoyloxy)-6-hydroxy-2-methyloxan-3-yl butanoate], which “Assay 2 (SIF) (% @ Remaining 4 hours)” value is on record?
The value was “C (>75% of the tested compound remaining)”.
